# Results as given in publication PMC2650797 (Carcinogenesis, 2009).
# pIC50: −log10 of the molar value.
# Molecular target: T1, Cytochrome P450 (CYP) 1A2 (Homo sapiens, UniProt P05177)
# T1 sequence (P05177 2-516): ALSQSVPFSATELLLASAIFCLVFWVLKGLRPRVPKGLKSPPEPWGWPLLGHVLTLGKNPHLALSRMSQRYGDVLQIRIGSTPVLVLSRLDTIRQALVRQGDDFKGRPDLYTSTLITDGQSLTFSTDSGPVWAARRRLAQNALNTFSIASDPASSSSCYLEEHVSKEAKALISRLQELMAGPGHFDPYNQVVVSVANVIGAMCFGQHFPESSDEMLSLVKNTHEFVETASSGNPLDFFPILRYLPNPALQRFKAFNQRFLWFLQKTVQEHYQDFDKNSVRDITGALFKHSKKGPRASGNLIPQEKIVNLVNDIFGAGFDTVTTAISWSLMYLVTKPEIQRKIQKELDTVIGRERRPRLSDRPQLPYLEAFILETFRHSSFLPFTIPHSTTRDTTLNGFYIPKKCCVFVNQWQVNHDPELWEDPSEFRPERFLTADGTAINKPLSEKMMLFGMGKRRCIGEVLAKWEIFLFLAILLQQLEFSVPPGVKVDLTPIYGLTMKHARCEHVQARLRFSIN
# Assay: 7-ethoxyresorufin O-deethylase fluorescence inhibition assay
# Type: biochemical
row,SMILES,pIC50
1,"CC(C)(C)c1cc(=S)ss1 [TBD, 5-tert-butyl-3H-1,2-dithiole-3-thione]",~4.89
2,"Cc1c(-c2cnccn2)ssc1=S [OLT, 4-methyl-5-pyrazinyl-3H-1,2-dithiole-3-thione]",~6.70
